Reference: ChEMBL document CHEMBL4364275, “Jietacins, azoxy natural products, as novel NF-κB inhibitors: Discovery, synthesis, biological activity, and mode of action” (Eur J Med Chem, 2019)
≈ marks a conversion by molar mass, not a printed value. Calls of active or inactive are those of the source. No cut-off for these calls is given here.

How the values were obtained:
[1] = tested on: K562; test: Antiproliferative activity against human K562 cells assessed as reduction in cell viability at 10 ug/ml measured after 24 hrs by MTT assay relative to control; format: functional
[2] = tested on: ATN-1; test: Antiproliferative activity against human ATN1 cells assessed as reduction in cell viability measured after 24 hrs by MTT assay; format: functional; conditions: ATN-1, 24 h, read-out: ED50 (the source's name)
[3] = organism: Homo sapiens; test: Inhibition of NF-kappaB localization in nucleus of human L540 cells at 3 ug/ml measured after 5 hrs by DAPI staining immunofluorescence microscopy
[4] = organism: Homo sapiens; test: Inhibition of NF-kappaB localization in nucleus of human L540 cells at 0.7 ug/ml measured after 5 to 24 hrs by DAPI staining immunofluorescence microscopy
[5] = organism: Homo sapiens; test: Inhibition of TNF alpha stimulated NF-kappaB in human FL cells transfected with kappaB luciferase at 5 to 10 ug/ml incubated for 4 hrs followed by TNF alpha stimulation measured after 3 hrs by dual luciferase reporter gene assay; format: cell-based
[6] = organism: Homo sapiens; test: Inhibition of NF-kappaB localization in nucleus of human L540 cells at 10 ug/ml measured after 5 to 24 hrs by DAPI staining immunofluorescence microscopy
[7] = organism: Homo sapiens; test: Inhibition of NF-kappaB localization in nucleus of human L540 cells at 1.5 ug/ml measured after 5 hrs by DAPI staining immunofluorescence microscopy
[8] = tested on: HeLa; test: Inhibition of TNF alpha stimulated NF-kappaB in human HeLa cells transfected with GFP-fused p50 mutant and IKBalpha expressing plasmid incubated for 2 hrs followed by TNF alpha stimulation by immunofluorescence microscopy; format: cell-based
[9] = tested on: HeLa; test: Antiproliferative activity against human HeLa cells assessed as reduction in cell viability at 25 to 100 ng/ml measured after 24 to 48 hrs by MTT assay; format: functional, cell-based
[10] = tested on: KM-H2; test: Antiproliferative activity against human KM-H2 cells assessed as reduction in cell viability at 25 to 100 ng/ml measured after 24 to 48 hrs by MTT assay; format: functional, cell-based
[11] = organism: Homo sapiens; test: Antiproliferative activity against human KK1 cells assessed as reduction in cell viability at 25 to 100 ng/ml measured after 24 to 48 hrs by MTT assay; format: functional, cell-based
[12] = target: T1, Importin subunit alpha-4 (Homo sapiens) (UniProt O00505); test: Inhibition of importin alpha 3 in human KM-H2 cells at 0.2 ug/ml after 6 hrs by Western blot analysis (reference value: 1); format: cell-based
T1 sequence (whole entry): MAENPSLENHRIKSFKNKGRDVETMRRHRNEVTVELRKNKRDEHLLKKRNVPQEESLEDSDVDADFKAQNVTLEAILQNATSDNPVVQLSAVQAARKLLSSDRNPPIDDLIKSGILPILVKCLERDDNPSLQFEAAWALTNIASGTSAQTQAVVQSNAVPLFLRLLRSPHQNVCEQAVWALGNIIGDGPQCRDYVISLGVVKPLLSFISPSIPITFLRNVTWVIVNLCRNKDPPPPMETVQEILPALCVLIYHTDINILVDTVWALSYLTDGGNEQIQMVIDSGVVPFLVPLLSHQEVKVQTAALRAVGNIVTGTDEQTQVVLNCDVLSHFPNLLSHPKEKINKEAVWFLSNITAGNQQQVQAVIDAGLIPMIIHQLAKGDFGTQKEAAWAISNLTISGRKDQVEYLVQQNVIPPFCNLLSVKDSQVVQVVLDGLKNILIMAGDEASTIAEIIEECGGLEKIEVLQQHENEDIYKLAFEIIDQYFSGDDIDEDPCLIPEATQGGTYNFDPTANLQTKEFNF

[13] = tested on: U-266; test: Antiproliferative activity against human U266 cells assessed as reduction in cell viability at 25 to 100 ng/ml measured after 24 to 48 hrs by MTT assay; format: functional, cell-based
[14] = organism: Homo sapiens; test: Antiproliferative activity against human KMM1 cells assessed as reduction in cell viability at 25 to 100 ng/ml measured after 24 to 48 hrs by MTT assay; format: functional, cell-based
[15] = organism: Homo sapiens; test: Antiproliferative activity against human KOB cells assessed as reduction in cell viability at 25 to 100 ng/ml measured after 24 to 48 hrs by MTT assay; format: functional, cell-based
[16] = tested on: L-540; test: Antiproliferative activity against human L540 cells assessed as reduction in cell viability at 25 to 100 ng/ml measured after 24 to 48 hrs by MTT assay; format: functional, cell-based
[17] = tested on: HeLa; test: Inhibition of TNF alpha stimulated NF-kappaB localization in nucleus of human HeLa cells transfected with GFP-fused RelA C38S and IKBalpha expressing plasmid incubated for 2 hrs followed by TNF alpha stimulation by immunofluorescence microscopy; format: cell-based
[18] = tested on: K562; test: Antiproliferative activity against human K562 cells assessed as reduction in cell viability at 25 to 100 ng/ml measured after 24 to 48 hrs by MTT assay; format: functional, cell-based
[19] = organism: Homo sapiens; test: Inhibition of TNF alpha stimulated NF-kappaB in human FL cells transfected with kappaB luciferase incubated for 2 hrs followed by TNF alpha stimulation measured after 3 hrs by dual luciferase reporter gene assay; format: cell-based
[20] = target: Transcription factor p65 (Homo sapiens) (UniProt Q04206); test: Inhibition of NF-kappaB RelA association with importin alpha in human KM-H2 cells at 0.2 ug/ml after 6 hrs by immunoprecipitation method; format: cell-based
Transcription factor p65 (Homo sapiens), sequence (Q04206 whole entry): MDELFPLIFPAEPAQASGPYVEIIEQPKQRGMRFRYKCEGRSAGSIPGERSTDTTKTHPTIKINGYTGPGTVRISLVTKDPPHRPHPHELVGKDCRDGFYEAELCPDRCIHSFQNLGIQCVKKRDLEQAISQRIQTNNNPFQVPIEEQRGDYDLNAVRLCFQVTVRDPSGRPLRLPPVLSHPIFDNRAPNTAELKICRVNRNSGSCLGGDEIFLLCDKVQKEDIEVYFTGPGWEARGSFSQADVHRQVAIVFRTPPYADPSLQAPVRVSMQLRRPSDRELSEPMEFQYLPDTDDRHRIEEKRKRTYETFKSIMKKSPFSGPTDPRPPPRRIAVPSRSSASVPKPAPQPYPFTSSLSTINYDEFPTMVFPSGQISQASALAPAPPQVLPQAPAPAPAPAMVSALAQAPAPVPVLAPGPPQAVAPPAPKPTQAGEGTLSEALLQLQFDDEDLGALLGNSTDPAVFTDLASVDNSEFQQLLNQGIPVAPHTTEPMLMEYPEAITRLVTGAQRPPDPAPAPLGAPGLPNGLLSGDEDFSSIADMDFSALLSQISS

[21] = Acute toxicity in rat; conditions: in vivo
[22] = tested on: HeLa; test: Inhibition of TNF alpha stimulated NF-kappaB localization in nucleus of human HeLa cells transfected with GFP-fused RelA and IKBalpha expressing plasmid incubated for 2 hrs followed by TNF alpha stimulation by immunofluorescence microscopy; format: cell-based
[23] = tested on: HeLa; test: Inhibition of TNF alpha stimulated NF-kappaB in human HeLa cells transfected with GFP-fused RelA mutant and IKBalpha expressing plasmid incubated for 2 hrs followed by TNF alpha stimulation by immunofluorescence microscopy; format: cell-based
[24] = organism: Homo sapiens; test: Inhibition of NF-kappaB localization in nucleus of human L540 cells at 0.2 ug/ml measured after 5 hrs by DAPI staining immunofluorescence microscopy
[25] = organism: Homo sapiens; test: Inhibition of NF-kappaB localization in nucleus of human L540 cells at 6 ug/ml measured after 5 hrs by DAPI staining immunofluorescence microscopy
[26] = organism: Homo sapiens; test: Inhibition of NF-kappaB localization in nucleus of human L540 cells at 5 ug/ml measured after 5 hrs by DAPI staining immunofluorescence microscopy

SMILES	Activity [1]	EC50 [2]	other results
C=C/[N+]([O-])=N/CCCCCCCCn1cc(CCC(C)C)nn1	<20%	0.72 mg/L (≈ 2.24 µM)	
C=C/[N+]([O-])=N/CCCCCCCCn1cc(C2(O)CCCCC2)nn1	<20%	1.31 mg/L (≈ 3.75 µM)	
C=C/[N+]([O-])=N/CCCCCCCCn1cc(CCCC)nn1	<20%	0.69 mg/L (≈ 2.24 µM)	
C=C/[N+]([O-])=N/CCCCCCCCn1cc(C(C)(C)C)nn1	<20%	0.69 mg/L (≈ 2.24 µM)	inhibition [3]: Active
C=C/[N+]([O-])=N/CCCCCCCCn1ccnn1	<20%	1.01 mg/L (≈ 4.02 µM)	
C=C/[N+]([O-])=N/CCCCCCCCn1cc(CCCCO)nn1	<20%	0.71 mg/L (≈ 2.2 µM)	inhibition [3]: Active
C=C/[N+]([O-])=N/CCCCCCCCn1cc(-c2cc3ccccc3c3ccccc23)nn1	<20%	1.03 mg/L (≈ 2.41 µM)	
C=C/[N+]([O-])=N/CCCCCCCCn1cc(-c2cccnc2)nn1	<20%	0.82 mg/L (≈ 2.5 µM)	
C=C/[N+]([O-])=N/CCCCCCCCn1cc(-c2ccccc2)nn1	<20%	0.76 mg/L (≈ 2.32 µM)	
C=C/[N+]([O-])=N/CCCCCCCCn1cc(-c2ccc(N)cc2)nn1	<20%	0.76 mg/L (≈ 2.22 µM)	
C=C/[N+]([O-])=N/CCCCCCCCn1cc(CC(C)C)nn1	<20%	0.83 mg/L (≈ 2.7 µM)	
C=C/[N+]([O-])=N/CCCCCCCCO	<20%	1.05 mg/L (≈ 5.24 µM)	
CC1(C)CCC2=C(O1)c1ccccc1C(=O)C2=O			inhibition [4]: inactive
C=C/[N+]([O-])=N/CCCCCCCCO[Si](C)(C)C(C)(C)C	<20%	1.34 mg/L (≈ 4.26 µM)	
C=C/[N+]([O-])=N/CCCCCCCC(=O)CCCCCC(C)C	<20%	1.82 mg/L (≈ 5.86 µM)	inhibition [5]: Active; inhibition [6]: Active
C=C/[N+]([O-])=N/CCCCCCCCOS(C)(=O)=O	<20%	1.18 mg/L (≈ 4.24 µM)	
C=CC(C)(C)[C@@]12C=C(OC)C(=O)N3/C(=C/c4c[nH]cn4)C(=O)N[C@]31N(OC)c1ccccc12			inhibition [6]: inactive

SMILES	Activity [1]	EC50 [2]	other results
C=C/[N+]([O-])=N/CCCCCCCCn1cc(CN(Cc2cn(CCCCCCCC/N=[N+](\[O-])C=C)nn2)Cc2cn(CCCCCCCC/N=[N+](\[O-])C=C)nn2)nn1	<20%	0.23 mg/L (≈ 0.285 µM)	inhibition [7]: Active
C=C/[N+]([O-])=N/CCCCCCCCn1nncc1CCC(C)C	<20%	0.85 mg/L (≈ 2.64 µM)	
C=C/[N+]([O-])=N/CCCCCCCCn1cc(C(C)C)nn1	<20%	0.84 mg/L (≈ 2.86 µM)	
C=C/[N+]([O-])=N/CCCCCCCCn1cc(CCBr)nn1	<20%	0.97 mg/L (≈ 2.71 µM)	
C=C/[N+]([O-])=N/CCCCCCCC(=O)CCCCCC	<20%	1.29 mg/L (≈ 4.57 µM)	
C=C/[N+]([O-])=N/CCCCCCCC(=O)CCCCC[C@@H](C)CC	<20%	1.65 mg/L (≈ 5.08 µM)	
C=C/[N+]([O-])=N/CCCCCCCCn1cc([Si](C)(C)C)nn1	<20%	0.68 mg/L (≈ 2.1 µM)	
C#CC(=O)CCCCCCC/N=[N+](\[O-])C=C	<20%	0.03 mg/L (≈ 0.135 µM)	inhibition [8]: Active; Activity [9]: Active; Activity [10]: Active; inhibition [5]: Active; Activity [11]: Active; fold change (FC) [12]: 0.53; Activity [13]: Active; Activity [14]: Active; Activity [15]: Active; Activity [16]: Active; inhibition [17]: inactive; Activity [18]: Active; inhibition [19]: Dose-dependent effect; inhibition [20]: Active; LD50 [21]: > 300 mg/kg; inhibition [22]: Active; inhibition [23]: inactive; inhibition [24]: Active
C=C/[N+]([O-])=N/CCCCCCCCn1cc(C(C)(C)O)nn1	<20%	1.15 mg/L (≈ 3.72 µM)	
C=C/[N+]([O-])=N/CCCCCCCC(=O)CCCCCCC(C)C	<20%	1.17 mg/L (≈ 3.61 µM)	inhibition [25]: Active
C=C/[N+]([O-])=N/CCc1ccccc1	<20%	1.03 mg/L (≈ 5.84 µM)	inhibition [26]: Active
C=C/[N+]([O-])=N/CCCCCCCCn1cc(CCCCC#N)nn1	<20%	0.97 mg/L (≈ 2.92 µM)	
C=C/[N+]([O-])=N/CCCCCCCC(=O)CCc1ccccc1	<20%	1.09 mg/L (≈ 3.6 µM)	
C=C/[N+]([O-])=N/CCCCCCCCn1cc(C2CC2)nn1	<20%	0.84 mg/L (≈ 2.88 µM)	inhibition [3]: Active
C=C/[N+]([O-])=N/CCCCCCCC(C)=O	<20%	2.26 mg/L (≈ 10.6 µM)	
C=C/[N+]([O-])=N/CCCCCCCC(=O)CCCCC[C@H](C)CC	<20%	1.49 mg/L (≈ 4.59 µM)	
